Results: ChEMBL document CHEMBL5291721, “A preclinical secondary pharmacology resource illuminates target-adverse drug reaction associations of marketed drugs” (Nat Commun, 2023)

Key:
[1] = biological target: T1, Gastrin/cholecystokinin type B receptor (Homo sapiens, UniProt P32239)
T1 sequence (P32239 whole entry): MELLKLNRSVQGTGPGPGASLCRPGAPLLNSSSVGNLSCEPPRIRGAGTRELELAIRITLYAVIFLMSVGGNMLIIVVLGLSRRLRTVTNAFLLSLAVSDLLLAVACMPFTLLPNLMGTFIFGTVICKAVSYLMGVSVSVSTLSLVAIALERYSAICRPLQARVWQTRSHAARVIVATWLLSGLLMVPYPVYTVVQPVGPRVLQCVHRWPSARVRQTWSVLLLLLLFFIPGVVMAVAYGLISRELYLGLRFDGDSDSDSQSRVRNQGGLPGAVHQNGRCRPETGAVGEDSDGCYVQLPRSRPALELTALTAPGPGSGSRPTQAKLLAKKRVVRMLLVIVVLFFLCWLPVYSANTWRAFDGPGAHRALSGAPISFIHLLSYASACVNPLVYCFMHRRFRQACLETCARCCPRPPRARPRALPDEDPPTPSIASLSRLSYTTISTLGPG

[2] = biological target: T2, Endothelin-1 receptor (Homo sapiens, UniProt P25101)
T2 sequence (P25101 whole entry): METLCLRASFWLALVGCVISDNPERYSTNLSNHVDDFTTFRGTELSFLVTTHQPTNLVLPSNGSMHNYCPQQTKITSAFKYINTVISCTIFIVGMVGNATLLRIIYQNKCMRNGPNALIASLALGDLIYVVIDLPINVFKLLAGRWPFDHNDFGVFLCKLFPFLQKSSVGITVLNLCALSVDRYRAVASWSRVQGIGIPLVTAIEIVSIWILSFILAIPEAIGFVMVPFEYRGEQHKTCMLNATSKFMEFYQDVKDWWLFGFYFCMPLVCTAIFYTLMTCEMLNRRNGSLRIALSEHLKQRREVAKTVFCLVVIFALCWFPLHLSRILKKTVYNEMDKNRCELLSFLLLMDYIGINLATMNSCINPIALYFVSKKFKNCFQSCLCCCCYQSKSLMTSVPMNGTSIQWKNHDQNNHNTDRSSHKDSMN

[3] = biological target: Vasopressin V1a receptor (Homo sapiens, UniProt P37288)
Vasopressin V1a receptor, sequence (P37288 whole entry): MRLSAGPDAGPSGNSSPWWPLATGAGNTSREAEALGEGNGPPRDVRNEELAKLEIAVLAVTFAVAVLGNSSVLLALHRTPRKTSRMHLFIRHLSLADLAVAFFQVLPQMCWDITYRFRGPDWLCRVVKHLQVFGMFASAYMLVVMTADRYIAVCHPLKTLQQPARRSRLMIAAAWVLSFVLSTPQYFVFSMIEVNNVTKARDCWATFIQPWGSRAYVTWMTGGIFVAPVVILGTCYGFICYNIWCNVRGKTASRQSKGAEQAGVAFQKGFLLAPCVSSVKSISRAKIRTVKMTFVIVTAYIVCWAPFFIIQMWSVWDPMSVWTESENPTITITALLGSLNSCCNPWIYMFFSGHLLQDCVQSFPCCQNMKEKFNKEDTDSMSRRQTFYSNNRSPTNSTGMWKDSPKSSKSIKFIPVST

[4] = biological target: Sodium-dependent noradrenaline transporter (Homo sapiens, UniProt P23975)
Sodium-dependent noradrenaline transporter, sequence (P23975 whole entry): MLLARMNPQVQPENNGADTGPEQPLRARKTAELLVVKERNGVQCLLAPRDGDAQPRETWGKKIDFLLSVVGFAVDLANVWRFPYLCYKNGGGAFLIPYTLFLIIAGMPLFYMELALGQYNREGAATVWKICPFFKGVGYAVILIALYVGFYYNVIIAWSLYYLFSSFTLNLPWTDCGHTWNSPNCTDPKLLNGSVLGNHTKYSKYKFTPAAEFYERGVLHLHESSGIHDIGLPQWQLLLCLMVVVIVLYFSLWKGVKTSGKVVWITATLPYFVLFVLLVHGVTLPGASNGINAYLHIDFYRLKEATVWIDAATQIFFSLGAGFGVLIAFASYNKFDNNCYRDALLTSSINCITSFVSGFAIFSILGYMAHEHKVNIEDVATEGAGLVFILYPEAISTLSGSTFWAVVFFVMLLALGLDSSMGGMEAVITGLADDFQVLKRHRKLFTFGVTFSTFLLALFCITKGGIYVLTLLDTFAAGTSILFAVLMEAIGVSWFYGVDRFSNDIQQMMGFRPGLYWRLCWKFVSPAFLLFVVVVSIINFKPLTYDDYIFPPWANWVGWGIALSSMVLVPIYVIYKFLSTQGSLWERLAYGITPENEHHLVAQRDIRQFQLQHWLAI

[5] = biological target: T3, Alpha-1A adrenergic receptor (Homo sapiens, UniProt P35348); assay type: functional, cell-based
T3 sequence (P35348 whole entry): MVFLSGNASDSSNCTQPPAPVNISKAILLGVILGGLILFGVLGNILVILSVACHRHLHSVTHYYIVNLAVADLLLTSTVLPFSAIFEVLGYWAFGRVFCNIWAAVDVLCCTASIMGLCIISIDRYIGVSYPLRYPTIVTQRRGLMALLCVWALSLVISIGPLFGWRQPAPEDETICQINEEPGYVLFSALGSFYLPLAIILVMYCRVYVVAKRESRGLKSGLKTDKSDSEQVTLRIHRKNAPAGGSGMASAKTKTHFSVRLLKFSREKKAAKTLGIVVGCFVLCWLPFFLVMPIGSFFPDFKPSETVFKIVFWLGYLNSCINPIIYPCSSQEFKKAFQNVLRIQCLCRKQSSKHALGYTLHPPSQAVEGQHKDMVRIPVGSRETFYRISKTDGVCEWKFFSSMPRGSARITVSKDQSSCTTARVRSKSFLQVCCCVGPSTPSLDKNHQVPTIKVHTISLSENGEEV

[6] = biological target: Histamine H2 receptor (Homo sapiens, UniProt P25021); assay type: functional, cell-based
Histamine H2 receptor, sequence (P25021 whole entry): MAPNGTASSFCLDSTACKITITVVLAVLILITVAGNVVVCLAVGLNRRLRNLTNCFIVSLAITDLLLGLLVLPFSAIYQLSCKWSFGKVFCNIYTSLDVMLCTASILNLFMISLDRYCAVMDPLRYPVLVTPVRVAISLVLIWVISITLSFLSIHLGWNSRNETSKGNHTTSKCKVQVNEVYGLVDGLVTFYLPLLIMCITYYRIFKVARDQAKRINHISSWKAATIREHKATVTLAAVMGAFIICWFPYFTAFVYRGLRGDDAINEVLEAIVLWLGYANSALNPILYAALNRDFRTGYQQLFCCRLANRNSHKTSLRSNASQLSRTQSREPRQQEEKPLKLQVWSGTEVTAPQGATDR

[7] = biological target: T4, Thromboxane A2 receptor (Homo sapiens, UniProt P21731); assay type: functional, cell-based
T4 sequence (P21731 whole entry): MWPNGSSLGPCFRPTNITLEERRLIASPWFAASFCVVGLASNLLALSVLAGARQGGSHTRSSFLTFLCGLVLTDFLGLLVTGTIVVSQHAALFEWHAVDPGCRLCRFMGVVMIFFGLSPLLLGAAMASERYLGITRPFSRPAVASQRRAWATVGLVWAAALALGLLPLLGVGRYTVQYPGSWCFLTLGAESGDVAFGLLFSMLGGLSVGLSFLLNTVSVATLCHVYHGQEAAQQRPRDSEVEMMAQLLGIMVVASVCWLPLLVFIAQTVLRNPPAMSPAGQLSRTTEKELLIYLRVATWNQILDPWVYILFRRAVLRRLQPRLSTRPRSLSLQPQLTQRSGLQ

[8] = biological target: Histamine H3 receptor (Homo sapiens, UniProt Q9Y5N1)
Histamine H3 receptor, sequence (Q9Y5N1 whole entry): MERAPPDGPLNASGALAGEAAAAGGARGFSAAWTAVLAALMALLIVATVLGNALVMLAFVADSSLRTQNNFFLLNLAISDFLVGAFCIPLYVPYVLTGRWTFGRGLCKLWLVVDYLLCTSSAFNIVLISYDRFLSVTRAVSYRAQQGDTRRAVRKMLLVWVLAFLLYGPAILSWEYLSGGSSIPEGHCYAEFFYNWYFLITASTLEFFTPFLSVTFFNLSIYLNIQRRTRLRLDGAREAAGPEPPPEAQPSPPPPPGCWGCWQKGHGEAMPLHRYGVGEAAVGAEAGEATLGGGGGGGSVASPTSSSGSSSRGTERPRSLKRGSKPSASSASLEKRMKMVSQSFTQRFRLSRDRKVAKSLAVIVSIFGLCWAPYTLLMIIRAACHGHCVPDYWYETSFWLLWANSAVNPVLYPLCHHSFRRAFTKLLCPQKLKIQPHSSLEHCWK

[9] = biological target: 5-hydroxytryptamine receptor 2A (Homo sapiens, UniProt P28223); assay type: functional, cell-based
5-hydroxytryptamine receptor 2A, sequence (P28223 whole entry): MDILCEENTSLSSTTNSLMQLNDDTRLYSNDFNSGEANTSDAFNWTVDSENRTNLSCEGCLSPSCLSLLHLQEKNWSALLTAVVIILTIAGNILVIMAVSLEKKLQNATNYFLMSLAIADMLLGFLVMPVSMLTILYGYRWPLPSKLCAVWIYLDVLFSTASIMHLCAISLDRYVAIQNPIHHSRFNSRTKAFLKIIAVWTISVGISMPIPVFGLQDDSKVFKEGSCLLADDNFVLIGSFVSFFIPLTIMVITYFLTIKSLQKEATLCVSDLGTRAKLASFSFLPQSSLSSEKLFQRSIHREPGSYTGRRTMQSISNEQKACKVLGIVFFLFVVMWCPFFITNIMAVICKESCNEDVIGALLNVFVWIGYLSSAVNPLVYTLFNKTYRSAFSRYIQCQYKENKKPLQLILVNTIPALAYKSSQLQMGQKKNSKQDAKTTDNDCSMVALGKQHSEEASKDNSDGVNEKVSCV

[10] = biological target: T5, Alpha-2B adrenergic receptor (Homo sapiens, UniProt P18089)
T5 sequence (P18089 whole entry): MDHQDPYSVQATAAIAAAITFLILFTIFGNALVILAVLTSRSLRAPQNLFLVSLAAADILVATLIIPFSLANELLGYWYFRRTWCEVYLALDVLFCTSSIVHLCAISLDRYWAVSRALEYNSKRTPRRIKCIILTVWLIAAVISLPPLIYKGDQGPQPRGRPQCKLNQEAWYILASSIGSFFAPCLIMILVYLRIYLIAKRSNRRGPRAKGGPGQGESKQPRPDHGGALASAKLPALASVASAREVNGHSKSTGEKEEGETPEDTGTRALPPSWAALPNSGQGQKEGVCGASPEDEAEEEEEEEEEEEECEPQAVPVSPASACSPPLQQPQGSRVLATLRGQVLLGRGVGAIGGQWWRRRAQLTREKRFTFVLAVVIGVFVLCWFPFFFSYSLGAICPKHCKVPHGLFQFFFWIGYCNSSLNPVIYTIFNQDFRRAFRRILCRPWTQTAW
Note: assay procedure not described here.

Row | Structure (SMILES) | AC50 [1] [µM] | AC50 [2] [µM] | AC50 [3] [µM] | AC50 [4] [µM] | AC50 [5] [µM] | AC50 [6] [µM] | AC50 [7] [µM] | AC50 [8] [µM] | AC50 [9] [µM] | AC50 [10] [µM]
1 | CCc1ccc(CCOc2ccc(CC3SC(=O)NC3=O)cc2)nc1 (configuration not stated) [PIOGLITAZONE] | > 30 | 15.9 | > 30 | > 30 | > 30 | > 10 | 9.68 | > 3 | – | –
2 | CC(C)C(=O)Nc1ccc([N+](=O)[O-])c(C(F)(F)F)c1 [FLUTAMIDE] | > 30 | – | > 30 | > 30 | > 30 | > 30 | 18.4 | > 30 | – | –
3 | OCCN1CCN(CCCN2c3ccccc3C=Cc3ccccc32)CC1 [OPIPRAMOL] | > 30 | > 30 | > 30 | 6.62 | > 30 | > 30 | > 30 | 19 | > 30 | 10
4 | NC(=O)c1cnccn1 [PYRAZINAMIDE] | > 30 | > 30 | > 30 | > 30 | > 30 | > 30 | > 30 | > 30 | – | –
5 | CS(=O)(=O)c1ccc([C@@H](O)[C@@H](CO)NC(=O)C(Cl)Cl)cc1 [THIAMPHENICOL] | > 30 | > 30 | > 30 | > 30 | > 30 | > 30 | > 30 | > 30 | – | –
6 | CC(C(=O)O)c1ccc(N2CC=CC2)c(Cl)c1 (configuration not stated) [PIRPROFEN] | > 30 | > 30 | > 10 | > 30 | > 30 | > 10 | > 30 | > 30 | > 30 | > 10
7 | CN(CCOc1ccc(NS(C)(=O)=O)cc1)CCc1ccc(NS(C)(=O)=O)cc1 [DOFETILIDE] | > 30 | > 30 | > 10 | > 30 | > 30 | > 30 | > 30 | > 30 | > 30 | > 10
8 | C#C[C@]1(O)CC[C@H]2[C@@H]3CCc4cc(O)ccc4[C@H]3CC[C@@]21C [ETHINYL ESTRADIOL] | > 30 | > 30 | > 10 | – | > 30 | > 10 | > 10 | > 30 | – | –
9 | Nc1nc(N)c2nc(-c3ccccc3)c(N)nc2n1 | > 30 | > 30 | > 30 | 16.1 | > 30 | > 30 | > 30 | > 30 | – | –
10 | Oc1ncnc2[nH]ncc12 [ALLOPURINOL] | > 30 | > 30 | > 10 | > 30 | > 30 | > 10 | > 30 | > 30 | – | –
11 | C[C@H]1O[C@H](O[C@H]2[C@H](O)[C@@H](O)[C@@H](O[C@H]3[C@H](O)[C@@H](O)C(O)O[C@@H]3CO)O[C@@H]2CO)[C@H](O)[C@@H](O)[C@@H]1N[C@H]1C=C(CO)[C@@H](O)[C@H](O)[C@H]1O (some centres not stated) [ACARBOSE] | > 30 | > 30 | > 30 | > 30 | > 30 | > 10 | > 30 | > 30 | – | –
12 | O=C(NC[C@H]1CN(c2ccc(N3CCOCC3=O)cc2)C(=O)O1)c1ccc(Cl)s1 [RIVAROXABAN] | – | – | – | > 30 | > 30 | – | > 3 | > 30 | > 30 | > 30
13 | CCOC(=O)N[C@@H]1CC[C@@H]2[C@@H](C1)C[C@H]1C(=O)O[C@H](C)[C@H]1[C@H]2/C=C/c1ccc(-c2cccc(F)c2)cn1 [VORAPAXAR] | – | – | – | 4.56 | > 30 | – | > 10 | > 10 | – | –
